Test results: patent US9745299B2, “Substituted tricyclic benzimidazoles as kinase inhibitors” (SELVITA SA, priority 2012, dated 2017)

Experiments:
Format in all cases: biochemical
CDK8/CyclinC = biological target: T1, CDK8/CyclinC (Homo sapiens, UniProt P49336); experiment: ADP-Glo Kinase Assay, CDK8/CyclinC; details: read-out: % inhibition at 1 μM CDK8/CyclinC; further: ATP at apparent Km (53 µM)
T1 construct: purchased ProQinase, Freiburg, Germany
Protocol: (§1) Testing of the compounds described in this invention was carried out using the ADP-Glo™ Kinase Assay from Promega Corporation (Madison, Wis., USA).
(§2) The ADP-Glo™ Kinase Assay is a luminescent ADP detection assay to measure kinase activity by quantifying the amount of ADP produced during a kinase reaction. The kinase assay is performed in kinase assay buffer (5 mM MOPS, pH 7.5, 5 mM MgCl2, 0.4 mM EDTA, 1.5 mM DTT). Test samples initially dissolved in DMSO at 10 mM were diluted with the assay buffer to 1000 nM. A 30 μL volume/well of a mixture of substrates containing ATP (final ATP concentration in each kinase assay was equal to its apparent ATP Km).
(§3) The assay was performed in two steps: first, after the kinase reaction, an equal volume of ADP-Glo™ Reagent was added to terminate the kinase reaction and deplete the remaining ATP. Second, the Kinase Detection Reagent was added to simultaneously convert ADP to ATP and allowed the newly synthesized ATP to be measured using a luciferase/luciferin reaction. The luminescent signal generated was proportional to the ADP concentration produced and was correlated with kinase activity.

CDK9/CyclinT = biological target: T2, CDK9/CyclinT (Homo sapiens, UniProt P50750); experiment: ADP-Glo Kinase Assay, CDK9/CyclinT; details: read-out: % inhibition at 1 μM CDK9/CyclinT; further: ATP at apparent Km (26 µM)
T2 construct: purchased Proqinase, Freiburg, Germany
T2 sequence (P50750 whole entry): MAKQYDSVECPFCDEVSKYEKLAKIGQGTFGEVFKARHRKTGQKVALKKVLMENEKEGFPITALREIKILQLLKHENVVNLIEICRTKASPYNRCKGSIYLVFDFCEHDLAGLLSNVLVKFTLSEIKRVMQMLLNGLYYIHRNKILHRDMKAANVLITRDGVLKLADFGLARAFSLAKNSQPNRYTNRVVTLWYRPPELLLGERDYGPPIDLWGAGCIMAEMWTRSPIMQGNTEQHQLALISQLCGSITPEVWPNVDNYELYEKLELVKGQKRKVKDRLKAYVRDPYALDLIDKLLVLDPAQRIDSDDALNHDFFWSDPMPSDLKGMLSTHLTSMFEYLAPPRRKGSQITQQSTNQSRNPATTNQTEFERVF
T2 sequence (O60563 whole entry partner): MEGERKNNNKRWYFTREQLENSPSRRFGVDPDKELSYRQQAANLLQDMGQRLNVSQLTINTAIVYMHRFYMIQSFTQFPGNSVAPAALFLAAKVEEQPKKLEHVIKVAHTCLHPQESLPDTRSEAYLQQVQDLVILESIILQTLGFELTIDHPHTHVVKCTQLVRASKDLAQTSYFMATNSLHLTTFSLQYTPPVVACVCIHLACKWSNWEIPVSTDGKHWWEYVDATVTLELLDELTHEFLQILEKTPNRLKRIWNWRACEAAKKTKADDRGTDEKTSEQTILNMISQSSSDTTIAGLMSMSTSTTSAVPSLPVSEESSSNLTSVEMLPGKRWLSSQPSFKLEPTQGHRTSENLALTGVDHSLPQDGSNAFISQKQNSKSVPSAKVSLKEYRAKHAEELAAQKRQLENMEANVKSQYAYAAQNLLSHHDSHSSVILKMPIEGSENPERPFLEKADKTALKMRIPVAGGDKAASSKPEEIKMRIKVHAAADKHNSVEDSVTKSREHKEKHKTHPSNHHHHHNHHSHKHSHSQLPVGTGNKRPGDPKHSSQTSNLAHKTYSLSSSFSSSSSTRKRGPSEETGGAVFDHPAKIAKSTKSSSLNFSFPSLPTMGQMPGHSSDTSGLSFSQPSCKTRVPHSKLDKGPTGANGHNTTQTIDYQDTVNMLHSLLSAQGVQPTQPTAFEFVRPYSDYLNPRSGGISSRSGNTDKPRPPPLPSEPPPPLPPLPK
Protocol: as §1, §2, §3

CDK2/CyclinE = biological target: T3, CDK2/CyclinE (Homo sapiens, UniProt P24941); experiment: ADP-Glo Kinase Assay, CDK2/CyclinE; details: read-out: % inhibition at 1 μM CDK2/CyclinE
T3 construct: purchased Millipore, Billerica, Mass., USA
Protocol: as §1, §2, §3

T1 sequence (P49336 whole entry): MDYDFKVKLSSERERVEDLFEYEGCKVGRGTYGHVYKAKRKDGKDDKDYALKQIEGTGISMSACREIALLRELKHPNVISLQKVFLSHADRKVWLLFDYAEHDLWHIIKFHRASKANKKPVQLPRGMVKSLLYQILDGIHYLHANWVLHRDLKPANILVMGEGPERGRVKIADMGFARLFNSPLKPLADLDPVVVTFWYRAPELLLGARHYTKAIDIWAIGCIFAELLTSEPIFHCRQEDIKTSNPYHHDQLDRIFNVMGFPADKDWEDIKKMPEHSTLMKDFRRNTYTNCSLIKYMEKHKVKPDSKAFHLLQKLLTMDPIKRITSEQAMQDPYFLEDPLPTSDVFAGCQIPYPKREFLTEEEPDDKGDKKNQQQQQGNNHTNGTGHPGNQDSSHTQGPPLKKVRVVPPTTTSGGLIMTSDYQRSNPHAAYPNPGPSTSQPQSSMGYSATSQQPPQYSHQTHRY
T1 sequence (P24863 whole entry partner): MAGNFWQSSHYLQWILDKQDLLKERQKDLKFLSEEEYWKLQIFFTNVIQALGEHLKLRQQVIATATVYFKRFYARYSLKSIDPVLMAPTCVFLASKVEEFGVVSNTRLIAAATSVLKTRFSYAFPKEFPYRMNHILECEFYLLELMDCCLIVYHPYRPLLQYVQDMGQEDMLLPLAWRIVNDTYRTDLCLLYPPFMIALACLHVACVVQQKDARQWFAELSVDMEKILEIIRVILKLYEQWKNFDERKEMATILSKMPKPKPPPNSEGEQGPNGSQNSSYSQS

Row | SMILES | inhibition at 1 µM (CDK8/CyclinC) | inhibition at 1 µM (CDK9/CyclinT) | inhibition at 1 µM (CDK2/CyclinE)
1 | Cc1c(Br)c(Br)c2c3c1nc(N1CCN[C@H](C)C1)n3CCC2 [Example 3AT] | 82% |  | 
2 | CN(C)C1CCN(c2nc3c(Br)c(Br)c(Br)c4c3n2CCC4)C1 (stereo not drawn) [Example 3AL] | 76% | 18% | 
3 | Brc1c(Br)c2c3c(nc(N4CCOCC4)n3CCC2)c1Br [Example 3G] | 80% |  | 
4 | Cc1c(Br)c(Br)c2c3c1nc(N1CCN(C)CC1)n3CCC2 [Example 3AK] | 75% | -9% | 0%
5 | Brc1c(Br)c2c3c(nc(NCCCN4CCCC4)n3CCC2)c1Br [Example 3L] | 54% | 6% | 
6 | Cc1c(Br)c(Br)c2c3c1nc(N1CCSCC1)n3CCC2 [Example 3AR] | 75% |  | 
7 | Cc1c(Br)c(Br)c2c3c1nc(C1CCN(C(C)C)CC1)n3CCC2 [Example 7D] | 66% |  | 
8 | Brc1c(Br)c2c3c(nc(Nc4ccncc4)n3CCC2)c1Br [Example 3B] | 45% |  | 
9 | OC1CCN(c2nc3c(I)c(Br)c(Br)c4c3n2CCC4)CC1 [Example 3AO] | 93% | 22% | 16%
10 | COC1CCN(c2nc3c(Br)c(Br)c(Br)c4c3n2CCC4)CC1 [Example 4A, 7,8,9-tribromo-2-(4-methoxypiperidin-1-yl)-5,6-dihydro-4H-imidazo[4,5,1-ij]quinoline] | 75% | 0% | 8%
11 | NCC1CCCN1c1nc2c(Br)c(Br)c(Br)c3c2n1CCC3 (stereo not drawn) [Example 1H] | 67% | 8% | 0%
12 | Brc1c(Br)c2c3c(nc(N[C@H]4CCCNC4)n3CCC2)c1Br [Example 1AW] | 57% | 41% | 0%
13 | O[C@H]1CCN(c2nc3c(Br)c(Br)c(Br)c4c3n2CCC4)C1 [Example 3AN] | 85% | 21% | 4%
14 | Cc1c(Br)c(Br)c2c3c1nc(N1CCOCC1)n3CCC2 [Example 3AU] | 76% |  | 
15 | Brc1c(Br)c2c3c(nc(Nc4ccccc4)n3CCC2)c1Br [Example 3C] | 59% |  | 
16 | Brc1c(Br)c2c3c(nc(NC4CCCCC4)n3CCC2)c1Br [Example 3E] | 64% | 3% | 3%
17 | OCCCNc1nc2c(Br)c(Br)c(Br)c3c2n1CCC3 [Example 3F] | 67% |  | 
18 | Cc1c(Br)c(Br)c2c3c1nc(N1CCC(N)CC1)n3CCC2 [Example 1AP] | 65% | 15% | 
19 | CCN(CC)c1nc2c(I)c(Br)c(Br)c3c2n1CCC3 [Example 3X] | 92% | 41% | 9%
20 | Cc1c(Br)c(Br)c2c3c1nc(N1CCNC(C)C1)n3CCC2 (stereo not drawn) [Example 3AH] | 76% | 0% | 0%
21 | Nc1nc2c(I)c(Br)c(Br)c3c2n1CCC3 [Example 3Y] | 69% | 17% | 21%
22 | CCN(CC)c1nc2c(C)c(Br)c(Br)c3c2n1CCC3 [Example 3AP] | 81% | 9% | 
23 | CC1(C)CN(c2nc3c(Br)c(Br)c(Br)c4c3n2CCC4)CCN1 [Example 3N] | 58% | 18% | 
24 | CC1CCCN1c1nc2c(I)c(Br)c(Br)c3c2n1CCC3 (stereo not drawn) [Example 3S] | 89% | 16% | 7%
25 | OCC1CCCN(c2nc3c(Br)c(Br)c(Br)c4c3n2CCC4)C1 (stereo not drawn) [Example 3U] | 92% | 24% | 9%
26 | O[C@@H]1CCN(c2nc3c(Br)c(Br)c(Br)c4c3n2CCC4)C1 [Example 3AC] | 94% | 26% | 12%
